According to ChEMBL document CHEMBL1799957, “Cerebrosides and 2-pyridone alkaloids from the halotolerant fungus Penicillium chrysogenum grown in a hypersaline medium” (J Nat Prod, 2011):
In brackets after ≈: the same amount, converted by molar mass.

Experiments:
[1] = system: HL-60; test: Cytotoxicity against human HL60 cells by MTT assay; assay type: functional, cell-based
[2] = system: A549; test: Cytotoxicity against human A549 cells by SRB assay; assay type: functional, cell-based
[3] = system: Staphylococcus aureus; test: Antimicrobial activity against Staphylococcus aureus by agar dilution method; assay type: functional
[4] = system: Escherichia coli; test: Antimicrobial activity against Escherichia coli by agar dilution method; assay type: functional
[5] = system: Klebsiella aerogenes; test: Antimicrobial activity against Enterobacter aerogenes by agar dilution method; assay type: functional
[6] = system: Bacillus subtilis; test: Antimicrobial activity against Bacillus subtilis by agar dilution method; assay type: functional
[7] = system: Pseudomonas aeruginosa; test: Antimicrobial activity against Pseudomonas aeruginosa by agar dilution method; assay type: functional
[8] = system: Candida albicans; test: Antimicrobial activity against Candida albicans by agar dilution method; assay type: functional
[9] = system: P388; test: Cytotoxicity against mouse P388 cells by MTT assay; assay type: functional, cell-based
[10] = system: HeLa; test: Cytotoxicity against human HeLa cells by MTT assay; assay type: functional, cell-based

Row | MIC [3] | MIC [4] | MIC [5] | MIC [6] | MIC [7] | MIC [8] | SMILES | IC50 [1] | IC50 [2] | IC50 [9] | IC50 [10]
1 | > 150 µM | > 150 µM | > 150 µM | > 150 µM | > 150 µM | > 150 µM | CCC[C@H](O)c1ccc(=O)[nH]c1C [CHRYSOGEDONE A] | > 50 µM | > 50 µM |  | 
2 | > 150 µM | > 150 µM | > 150 µM | > 150 µM | > 150 µM | > 150 µM | CCC[C@H](O)c1ccc(=O)[nH]c1CO [CHRYSOGEDONE B] | > 50 µM | > 50 µM |  | 
3 | > 150 µM | > 150 µM | > 150 µM | > 150 µM | > 150 µM | > 150 µM | CCCCCCC/C=C\CC/C=C/[C@@H](O)[C@H](CO[C@@H]1O[C@H](CO)[C@@H](O)[C@H](O)[C@H]1O)NC(=O)[C@H](O)/C=C/CCCCCCCCCCCCCC [CHRYSOGESIDE A] |  |  | > 50 µM | > 50 µM
4 | > 150 µM | > 150 µM | 1.72 µM (≈ 1.25 µg/mL) | > 150 µM | > 150 µM | > 150 µM | CCCCCCCCCCCCCCC/C=C/[C@@H](O)C(=O)N[C@@H](CO[C@@H]1O[C@H](CO)[C@@H](O)[C@H](O)[C@H]1O)[C@H](O)/C=C/CC/C=C(\C)CCCCCC [CHRYSOGESIDE B] |  |  | > 50 µM | > 50 µM
5 | > 150 µM | > 150 µM | > 150 µM | > 150 µM | > 150 µM | > 150 µM | CCCCCCCCCCCCCCC/C=C/[C@@H](O)C(=O)N[C@@H](CO[C@@H]1O[C@H](CO)[C@@H](O)[C@H](O)[C@H]1O)[C@H](O)/C=C/CC/C=C(\C)CCCCC [CHRYSOGESIDE C] |  |  | > 50 µM | > 50 µM
6 | > 150 µM | > 150 µM | > 150 µM | > 150 µM | > 150 µM | > 150 µM | CCCCCCCCCCCCCCC/C=C/[C@@H](O)C(=O)N[C@@H](CO[C@@H]1O[C@H](CO)[C@@H](O)[C@H](O)[C@H]1O)[C@H](O)/C=C/CC/C=C(\C)CCCCCCCC [CHRYSOGESIDE D] |  |  | > 50 µM | > 50 µM
7 | > 150 µM | > 150 µM | > 150 µM | > 150 µM | > 150 µM | > 150 µM | CCCCCCCCCCCCCCCCC[C@@H](O)C(=O)N[C@@H](CO[C@@H]1O[C@H](CO)[C@@H](O)[C@H](O)[C@H]1O)[C@H](O)/C=C/CC/C=C(\C)CCCCCC [CHRYSOGESIDE E] |  |  | > 50 µM | > 50 µM
